Laboratory results reported in US8372807B2, “Methods of modulating uric acid levels” (Ardea Biosciences, Inc., priority 2009, dated 2013).

Biological target: T1, hURAT1 transporter (URAT-1) (Homo sapiens, UniProt Q96S37)
T1 construct: Full-length human URAT1 gene (SLC22A12) was subcloned from plasmid pCMV6-XL5
T1 sequence (Q96S37 1-553): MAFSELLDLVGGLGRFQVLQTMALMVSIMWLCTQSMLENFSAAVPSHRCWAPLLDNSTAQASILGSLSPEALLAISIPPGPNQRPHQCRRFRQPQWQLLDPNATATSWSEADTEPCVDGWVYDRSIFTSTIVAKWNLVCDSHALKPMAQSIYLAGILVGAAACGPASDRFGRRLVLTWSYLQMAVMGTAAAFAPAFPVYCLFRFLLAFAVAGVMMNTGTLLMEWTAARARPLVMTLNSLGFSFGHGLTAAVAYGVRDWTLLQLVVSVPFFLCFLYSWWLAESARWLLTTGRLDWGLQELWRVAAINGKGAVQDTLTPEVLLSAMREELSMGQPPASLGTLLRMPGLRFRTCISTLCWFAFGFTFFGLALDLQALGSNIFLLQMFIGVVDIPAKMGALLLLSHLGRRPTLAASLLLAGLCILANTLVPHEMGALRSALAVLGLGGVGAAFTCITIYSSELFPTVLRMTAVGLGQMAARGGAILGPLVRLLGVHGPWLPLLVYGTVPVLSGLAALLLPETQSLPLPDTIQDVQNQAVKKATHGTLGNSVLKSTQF
Test: Uric Acid Uptake Assay (URAT-1 EC50)
Type: cell-based
Conditions: HEK293/urat1 cells, C14 uric acid uptake, 40 μM uric acid, 10 minutes at room temperature
From the text: Uric Acid Uptake Assay (URAT-1 EC50)
Creation of Stable Cell Lines Expressing hURAT1 Transporter: Full-length human URAT1 gene (SLC22A12) was subcloned from plasmid pCMV6-XL5 (Origene) into eukaryotic expression plasmid pCMV6/Neo (Origene) using Not I restriction sites. Gene sequencing confirmed the sequence of hURAT1 as outlined in Genbank (Accession #NM_144585.2). HEK293 human embryonic kidney cells (ATCC#CRL-1573) were propagated in EMEM tissue culture medium as described by ATCC in an atmosphere of 5% CO2 and 95% air. Transfections of HEK293 cells with the pCMV6/Neo/URAT1 construct were performed using L2000 transfection reagent (Invitrogen) as described by the manufacturer. After 24 h the transfected cells were split into 10 cm tissue culture plates and grown for 1 day after which the medium was replaced with fresh growth medium containing G418 (Gibco) at 0.5 mg/ml final concentration. Drug-resistant colonies were selected after approximately 8 days and then tested for ^14C-uric acid transport activity. The HEK293/urat1 cells are plated on Poly-D-Lysine Coated 96-well Plates at a density of 75,000 cells per well.
Cells were grown overnight (20-26 hours) at 37° C. in an incubator. Plates were allowed to come to room temperature and media was washed out with one wash of 250 μl of Wash Buffer (125 mM Na Gluconate, 10 mM Hepes pH 7.3). Compound or vehicle is added in assay buffer with C14 Uric Acid for a final concentration of 40 μM Uric Acid with a specific activity of 54 mCi/mmol Assay Buffer is 125 mM Sodium Gluconate, 4.8 mM Potassium Gluconate, 1.2 mM Potassium phosphate, monobasic, 1.2 mM magnesium sulfate, 1.3 mM Ca Gluconate, 5.6 mM Glucose, 25 mM HEPES, pH 7.3. Plates were incubated at room temperature for 10 minutes then washed 3 times with 50 μl Wash Buffer and 3 times with 250 μl Wash Buffer. Microscint 20 Scintillation Fluid was added and plates were incubated overnight at 45° C. to equilibrate. Plates are then read on the TopCount Plate Reader and an EC50 value generated. (See Enomoto et al, Nature, 2002, 417, 447-451 and Anzai et al, J. Biol. Chem., 2004, 279, 45942-45950.)
Compounds prepared as described above in examples 24-32, were examined according to the procedure described herein and EC50 values generated. The table below summarizes the activity of the compounds in the Uric Acid Uptake Assay, wherein

EC50 [µM] | SMILES
< 5 | CC(C)(Sc1nnnn1-c1cccc2ccccc12)C(=O)O [Example 30, 2-Methyl-2-(1-(naphthalen-1-yl)-1H-tetrazol-5-ylthio)propanoic acid]
< 5 | CCOC(=O)C(C)(C)Oc1n[nH]c(C)c1-c1cccc2ccccc12 [26 (step C), Ethyl 2-methyl-2-(5-methyl-4-(naphthalen-1-yl)-1H-pyrazol-3-yloxy)propanoate]
5 to 20 | CC(C)(Oc1ccnn1-c1cccc2ccccc12)C(=O)O [Example 24, 2-Methyl-2-(1-(naphthalen-1-yl)-1H-pyrazol-5-yloxy)propanoic acid]
< 5 | Cc1[nH]nc(OC(C)(C)C(=O)O)c1-c1cccc2ccccc12 [26 (step D), 2-methyl-2-(5-methyl-4-(naphthalen-1-yl)-1H-pyrazol-3-yloxy)propanoic acid]
< 5 | CC(C)(Sc1ccnn1-c1cccc2ccccc12)C(=O)O [Example 25, 2-Methyl-2-(1-(naphthalen-1-yl)-1H-pyrazol-5-ylthio)propanoic acid]
< 5 | CC(C)(Sc1cnnn1-c1cccc2ccccc12)C(=O)O [Example 28, 2-Methyl-2-(1-(naphthalen-1-yl)-1H-1,2,3-triazol-5-ylthio)propanoic acid]
5 to 20 | O=C(O)CSc1snnc1-c1cccc2ccccc12 [Example 32, 2-(4-(Naphthalen-1-yl)-1,2,3-thiadiazol-5-ylthio)acetic acid]
